Reference: paper PMC10321483 (Chemical Science, 2023)
Values joined by “and” are separate entries in the source; they are usually repeats but may differ in a detail not shown here. Equal values may be shown once.

target: T1, LdtMt2 (Mycobacterium tuberculosis, UniProt I6Y9J2); assay: Rate constant of covalent target inactivation (kinact/KI), endpoint competition assay with probe 2; format: biochemical; parameters: made in house; host or cells: E. coli; details: 100 nM LdtMt2, 10 µM probe 2, 3 h incubation; n=4
T1 sequence (I6Y9J2 56-408): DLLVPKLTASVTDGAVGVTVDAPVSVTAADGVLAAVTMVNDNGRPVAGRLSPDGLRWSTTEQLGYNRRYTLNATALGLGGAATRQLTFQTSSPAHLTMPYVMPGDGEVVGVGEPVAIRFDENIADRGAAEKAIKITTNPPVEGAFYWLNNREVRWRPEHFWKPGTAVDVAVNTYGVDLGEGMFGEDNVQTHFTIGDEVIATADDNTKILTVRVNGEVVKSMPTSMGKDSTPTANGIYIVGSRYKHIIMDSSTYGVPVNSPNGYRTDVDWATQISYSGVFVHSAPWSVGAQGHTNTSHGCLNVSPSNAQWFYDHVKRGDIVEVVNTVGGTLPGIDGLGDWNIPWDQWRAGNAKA

Q: With `COc1ccc(COC(=O)C2N3C(=O)C(Br)C3S(=O)(=O)C2(C)C)cc1` (stereo not shown) [Compound 21] as the compound, how does the kinact/KI read?
A: 53.2 ± 4.7 M⁻¹ s⁻¹

Q: For `N#CN1CCCN1C(=O)OCc1ccc(Cl)c(Cl)c1` [Compound 37], which kinact/KI is on record?
A: 8.44 ± 1.2 M⁻¹ s⁻¹

Q: With `N#Cn1c(-c2ccncc2)nc2ccc(-c3ccco3)cc21` [Compound 33] as the compound, how does the kinact/KI read?
A: 71.8 ± 1.1 M⁻¹ s⁻¹

same assay, conditions: from kobs, LdtMt2 100 nM, probe 2 100 nM to 10 μM

Q: How did the “(kinact/KI)probe” value turn out when `O=C1OC2(c3ccc(O)cc3Oc3cc(OS(=O)(=O)c4ccc([N+](=O)[O-])cc4[N+](=O)[O-])ccc32)c2ccccc21` (stereo not shown) [probe 2, reference compound] was run?
A: 39.8 M⁻¹ s⁻¹

target: T1, LdtMt2; assay: biochemical; format: biochemical; parameters: made in house; host or cells: E. coli; details: not given

Q: For `C[C@@H](O)[C@H]1C(=O)N2C(C(=O)O)=C(S[C@H]3CC[S@@+]([O-])C3)S[C@H]12` [Sulopenem, reference compound], which “pIC50 LdtMt2 (mean ± SD)” value is on record?
A: 6.2 ± 0.03

Q: How did the “LE (ligand efficiency)” value turn out when `COc1ccc(COC(=O)C2N3C(=O)C(Br)C3S(=O)(=O)C2(C)C)cc1` (stereo not shown) [Compound 21] was run?
A: 0.45

Q: Which “LE (ligand efficiency)” value does the source give for `N#CN1CCCN1C(=O)OCc1ccc(Cl)c(Cl)c1` [Compound 37] here?
A: 0.59

Q: For `N#Cn1c(-c2ccncc2)nc2ccc(-c3ccco3)cc21` [Compound 33], which “LE (ligand efficiency)” value is on record?
A: 0.51

Q: For `N#Cn1c(-c2ccncc2)nc2ccc(-c3cccnc3)cc21` [Compound 35], which “LE (ligand efficiency)” value is on record?
A: 0.49

Q: For `N#Cn1nnc2ccccc21` [Compound 42, reference compound], which “pIC50 LdtMt2” value is on record?
A: 6.02 ± 0.05

Q: How did the “LE (ligand efficiency)” value turn out when `Cc1ccccc1NC(=O)C=CC(N)=O` [Compound 14] was run?
A: 0.75

Q: For `CCC(C)SSc1ncc[nH]1` (stereo not shown) [PX-12, reference compound], which “pIC50 LdtMt2 (mean ± SD)” value is on record?
A: 5.9 ± 0.01 and 6.09 ± 0.03

Q: With `Cc1ccc(C=CC(=O)N2CC(=O)Nc3ccccc32)o1` [Compound 10] as the compound, how does the “LE (ligand efficiency)” value read?
A: 0.54

Q: `NC(=O)CI` [Iodoacetamide, reference compound] was tested. Which “pIC50 LdtMt2 (mean ± SD)” value did it give?
A: 5.8 ± 0.03

Q: How did the “LE (ligand efficiency)” value turn out when `CNC(C)C(=O)NC1CCN(c2ccc(N3CCCC3)cc2C#N)C1` (stereo not shown) [Compound 38] was run?
A: 0.45

Q: How did the “pIC50 LdtMt2” value turn out when `N#Cn1ccnc1` [Compound 41, reference compound] was run?
A: 6.54 ± 0.01

Q: For `N#Cn1c(N2CCSCC2)nc2ccccc21` [Compound 27], which “LE (ligand efficiency)” value is on record?
A: 0.66

Q: For `N#Cn1c(N2CCOCC2)nc2ccccc21` [Compound 28], which “LE (ligand efficiency)” value is on record?
A: 0.66

same assay, conditions: Table S4 HTS validation; 30 minutes inhibitor pre-incubation; n=6

Q: With `C[C@@H](O)[C@H]1C(=O)N2C(C(=O)O)=C(S[C@H]3CC[S@@+]([O-])C3)S[C@H]12` [Sulopenem, reference compound] as the compound, how does the “pIC50 LdtMt2 (mean ± SD)” value read?
A: 6.35 ± 0.02

Q: How did the “pIC50 LdtMt2 (mean ± SD)” value turn out when `NC(=O)CI` [Iodoacetamide, reference compound] was run?
A: 6.05 ± 0.03

same assay, conditions: Table S4 HTS validation; 30 minutes inhibitor pre-incubation; n=6; read-out: pIC50 LdtMt2 (mean ± SD) (converted)

Q: How did the IC50 turn out when `O=C(NNC(=O)[C@@H]1CC[C@@H]2CN1C(=O)N2OS(=O)(=O)O)[C@@H]1CCCNC1` [Zidebactam, reference compound] was run?
A: 13.2 µM

Q: Which IC50 does the source give for `O=c1c2ccccc2[se]n1-c1ccccc1` [Ebselen] here?
A: 0.214 µM

Q: With `C[C@@H](O)[C@H]1C(=O)N2C(C(=O)[O-])=C(SC3Cn4cnc[n+]4C3)[C@H](C)[C@H]12` (stereo partly shown) [Biapenem, reference compound] as the compound, how does the IC50 read?
A: 2.88 µM

same assay, conditions: pIC50 LdtMt2 (mean ± SD)

Q: With `O=C(NNC(=O)[C@@H]1CC[C@@H]2CN1C(=O)N2OS(=O)(=O)O)[C@@H]1CCCNC1` [Zidebactam, reference compound] as the compound, how does the IC50 read?
A: 100 µM

Q: Which IC50 does the source give for `C[C@@H](O)[C@H]1C(=O)N2C(C(=O)[O-])=C(SC3Cn4cnc[n+]4C3)[C@H](C)[C@H]12` (stereo partly shown) [Biapenem, reference compound] here?
A: 79.4 µM

target: T2, BlaC (Mycobacterium tuberculosis, UniProt P9WKD3); assay: BlaC fluorogenic inhibition assay with FC5 (dose-response); format: biochemical; details: Table S3 tool compounds; 10 min incubation; 2.5 nM BlaC, 2.5 µM FC5; n=4
T2 construct: made in house; host or cells: E. coli
T2 sequence (P9WKD3 35-307): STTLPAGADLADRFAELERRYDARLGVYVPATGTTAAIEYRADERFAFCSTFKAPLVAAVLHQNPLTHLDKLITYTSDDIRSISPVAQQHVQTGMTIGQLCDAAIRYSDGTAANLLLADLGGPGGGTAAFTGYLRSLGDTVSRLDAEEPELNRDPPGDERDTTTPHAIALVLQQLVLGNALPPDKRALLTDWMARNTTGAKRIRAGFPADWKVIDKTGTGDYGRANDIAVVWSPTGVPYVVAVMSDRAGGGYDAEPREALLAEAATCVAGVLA
Protocol: Two types of controls were used. […] In control 2, the BlaC mixture was substituted with the assay buffer. This mixture was incubated for 30 minutes at room temperature without shaking. […] Data were analysed using ActivityBase (IDBS).

Q: Which “pIC50 BlaC (mean ± SD)” value does the source give for `C[C@@H](O)[C@H]1C(=O)N2C(C(=O)O)=C(S[C@H]3CC[S@@+]([O-])C3)S[C@H]12` [Sulopenem, reference compound] here?
A: 6.60 ± 0.12

Q: `CCC(C)SSc1ncc[nH]1` (stereo not shown) [PX-12, reference compound] was tested. Which “pIC50 BlaC (mean ± SD)” value did it give?
A: < 4.0

Q: Which “pIC50 BlaC (mean ± SD)” value does the source give for `NC(=O)CI` [Iodoacetamide, reference compound] here?
A: < 4.0

same assay, conditions: Table S3 tool compounds; 10 min incubation; 2.5 nM BlaC, 2.5 µM FC5; n=4; read-out: pIC50 BlaC (mean ± SD) (converted)

Q: `O=C(NNC(=O)[C@@H]1CC[C@@H]2CN1C(=O)N2OS(=O)(=O)O)[C@@H]1CCCNC1` [Zidebactam, reference compound] was tested. Which IC50 did it give?
A: 70.8 µM

Q: With `O=c1c2ccccc2[se]n1-c1ccccc1` [Ebselen] as the compound, how does the IC50 read?
A: 1.51 µM

Q: Which IC50 does the source give for `C[C@@H](O)[C@H]1C(=O)N2C(C(=O)[O-])=C(SC3Cn4cnc[n+]4C3)[C@H](C)[C@H]12` (stereo partly shown) [Biapenem, reference compound] here?
A: 3.09 µM

same assay, conditions: Table S4 HTS validation; 30 minutes inhibitor pre-incubation; n=8

Q: Which “pIC50 BlaC (mean ± SD)” value does the source give for `C[C@@H](O)[C@H]1C(=O)N2C(C(=O)O)=C(S[C@H]3CC[S@@+]([O-])C3)S[C@H]12` [Sulopenem, reference compound] here?
A: 6.86 ± 0.02

same assay, conditions: Table S4 HTS validation; 30 minutes inhibitor pre-incubation; n=8; read-out: pIC50 BlaC (mean ± SD) (converted)

Q: How did the IC50 turn out when `O=C(NNC(=O)[C@@H]1CC[C@@H]2CN1C(=O)N2OS(=O)(=O)O)[C@@H]1CCCNC1` [Zidebactam, reference compound] was run?
A: 7.24 µM

Q: Which IC50 does the source give for `O=c1c2ccccc2[se]n1-c1ccccc1` [Ebselen] here?
A: 0.302 µM

Q: With `C[C@@H](O)[C@H]1C(=O)N2C(C(=O)[O-])=C(SC3Cn4cnc[n+]4C3)[C@H](C)[C@H]12` (stereo partly shown) [Biapenem, reference compound] as the compound, how does the IC50 read?
A: 0.479 µM

same assay, conditions: Table S5 HTS hits; 30 minute inhibitor pre-incubation; two independent repeats

Q: For `Cc1ccccc1NC(=O)C=CC(N)=O` [Compound 14], which “pIC50 BlaC” value is on record?
A: < 4.0

Q: How did the “pIC50 BlaC” value turn out when `CNC(C)C(=O)NC1CCN(c2ccc(N3CCCC3)cc2C#N)C1` (stereo not shown) [Compound 38] was run?
A: < 4.0

Q: For `N#Cn1c(N2CCSCC2)nc2ccccc21` [Compound 27], which “pIC50 BlaC” value is on record?
A: < 4.0

Q: Which “pIC50 BlaC” value does the source give for `N#Cn1c(N2CCOCC2)nc2ccccc21` [Compound 28] here?
A: < 4.0

target: T1, LdtMt2; assay: biochemical; format: binding; parameters: made in house; host or cells: E. coli; details: not given; remark: another data set of the same source
Protocol: LdtMt2 (5 μM) was incubated with the inhibitor (500 μM) in assay buffer (50 mM tris pH 7.5) for 30 minutes at room temperature in 96-well white PCR plates (25 μL final volume, Starlab). SYPRO Orange (final concentration 6×, according to manufacturer's definition, Invitrogen) was then added and the plate was sealed using a transparent plastic film (Polyolefin StarSeal, Starlab). Fluorescence was monitored (with λex = 492 nm and λem = 610 nm) using a CFX96 Touch Real-Time PCR Detection System (Bio-Rad), while the temperature was increased from 20 to 95 °C in increments of 0.2 °C. Melting temperatures (Tms) were determined using the CFX Maestro Software (Bio-Rad).

Q: `COc1ccc(COC(=O)C2N3C(=O)C(Br)C3S(=O)(=O)C2(C)C)cc1` (stereo not shown) [Compound 21] was tested. Which “ΔTm: difference in melting point of LdtMt2 relative to unreacted LdtMt2 (43.8 °C)” value did it give?
A: -0.7

Q: How did the “ΔTm: difference in melting point of LdtMt2 relative to unreacted LdtMt2 (43.8 °C)” value turn out when `N#CN1CCCN1C(=O)OCc1ccc(Cl)c(Cl)c1` [Compound 37] was run?
A: -1.5

Q: Which “ΔTm: difference in melting point of LdtMt2 relative to unreacted LdtMt2 (43.8 °C)” value does the source give for `N#Cn1c(-c2ccncc2)nc2ccc(-c3ccco3)cc21` [Compound 33] here?
A: -0.5

Q: `N#Cn1c(-c2ccncc2)nc2ccc(-c3cccnc3)cc21` [Compound 35] was tested. Which “ΔTm: difference in melting point of LdtMt2 relative to unreacted LdtMt2 (43.8 °C)” value did it give?
A: -0.9

Q: With `Cc1ccccc1NC(=O)C=CC(N)=O` [Compound 14] as the compound, how does the “ΔTm: difference in melting point of LdtMt2 relative to unreacted LdtMt2 (43.8 °C)” value read?
A: +1.1

Q: With `CNC(C)C(=O)NC1CCN(c2ccc(N3CCCC3)cc2C#N)C1` (stereo not shown) [Compound 38] as the compound, how does the “ΔTm: difference in melting point of LdtMt2 relative to unreacted LdtMt2 (43.8 °C)” value read?
A: -1.0

Q: For `N#Cn1c(N2CCSCC2)nc2ccccc21` [Compound 27], which “ΔTm: difference in melting point of LdtMt2 relative to unreacted LdtMt2 (43.8 °C)” value is on record?
A: -1.3

Q: `N#Cn1c(N2CCOCC2)nc2ccccc21` [Compound 28] was tested. Which “ΔTm: difference in melting point of LdtMt2 relative to unreacted LdtMt2 (43.8 °C)” value did it give?
A: -1.5

same assay, conditions: pH 7.5; in °C (unit assumed)

Q: With `COc1ccc(COC(=O)C2N3C(=O)C(Br)C3S(=O)(=O)C2(C)C)cc1` (stereo not shown) [Compound 21] as the compound, how does the “Tm: melting point of LdtMt2 after pre-incubation with the compound” value (“Tm: melting point of LdtMt2” for short) read?
A: 43.1 ± 0.09

Q: For `N#CN1CCCN1C(=O)OCc1ccc(Cl)c(Cl)c1` [Compound 37], which “Tm: melting point of LdtMt2” value is on record?
A: 42.3 ± 0.09

Q: `N#Cn1c(-c2ccncc2)nc2ccc(-c3ccco3)cc21` [Compound 33] was tested. Which “Tm: melting point of LdtMt2” value did it give?
A: 43.3 ± 0.09

Q: Which “Tm: melting point of LdtMt2” value does the source give for `N#Cn1c(-c2ccncc2)nc2ccc(-c3cccnc3)cc21` [Compound 35] here?
A: 42.9 ± 0.34

Q: How did the “Tm: melting point of LdtMt2” value turn out when `Cc1ccccc1NC(=O)C=CC(N)=O` [Compound 14] was run?
A: 44.9 ± 0.09

Q: How did the “Tm: melting point of LdtMt2” value turn out when `CNC(C)C(=O)NC1CCN(c2ccc(N3CCCC3)cc2C#N)C1` (stereo not shown) [Compound 38] was run?
A: 42.8 ± 0.00

Q: `N#Cn1c(N2CCSCC2)nc2ccccc21` [Compound 27] was tested. Which “Tm: melting point of LdtMt2” value did it give?
A: 42.5 ± 0.09

Q: For `N#Cn1c(N2CCOCC2)nc2ccccc21` [Compound 28], which “Tm: melting point of LdtMt2” value is on record?
A: 42.3 ± 0.09
